Data taken from patent publication US20180072738A1, “SOLVATED FORMS OF A BRUTON'S TYROSINE KINASE INHIBITOR” (Pharmacyclics LLC, priority 2015, published 2018).
Like-named read-outs stand apart in the source and are kept apart here. Each block holds one compound with its values, some of them ahead of it.

Key:
[1] = Storage stability of the crystalline form at 40° C./75% RH (XRPD); format: physicochemical; settings: for crystalline form after storage: storage at 40° C. and 75% RH, duration not stated
Protocol: X-Ray powder diffraction patterns were collected on a Bruker AXS C2 GADDS or Bruker AXS D8 diffractometer.
X-Ray Powder Diffraction patterns were collected on a Bruker AXS C2 GADDS diffractometer using Cu Ka radiation (40 kV, 40 mA), automated XYZ stage, laser video microscope for auto-sample positioning and a Hi Star 2-dimensional area detector. X-ray optics consists of a single Gobel multilayer mirror coupled with a pinhole collimator of 0.3 mm. A weekly performance check is carried out using a certified standard NIST 1976 Corundum (flat plate). The beam divergence, i.e. the effective size of the X-ray beam on the sample, was approximately 4 mm. A θ-θ continuous scan mode was employed with a sample-detector distance of 20 cm which gives an effective 2θ range of 3.2°-29.7°. Typically the sample would be exposed to the X-ray beam for 120 seconds. The software used for data collection was GADDS for XP/2000 4.1.43 and the data were analysed and presented using Diffrac Plus EVA v15.0.0.0.
X-Ray Powder Diffraction patterns were collected on a Bruker D8 diffractometer using Cu Ka radiation (40 kV, 40 mA), θ-2θ goniometer, and divergence of V4 and receiving slits, a Ge monochromator and a Lynxeye detector. The instrument is performance checked using a certified Corundum standard (NIST 1976). The software used for data collection was Diffrac Plus XRD Commander v2.6.1 and the data were analysed and presented using Diffrac Plus EVA v15.0.0.0. Samples were run under ambient conditions as flat plate specimens using powder as received. The sample was gently packed into a cavity cut into polished, zero-background (510) silicon wafer. The sample was rotated in its own plane during analysis. The details of the data collection are: • Angular range: 2 to 42° 2θ • Step size: 0.05° 2θ • Collection time: 0.5 s/step

OCI-Ly10 = assay: Growth inhibition of OCI-Ly10 (ABC-DLBCL) cells; format: cell-based; settings: Homo sapiens
OCILy10 = assay: Induction of apoptosis in OCI-Ly10 (caspase activation, Annexin-V flow cytometry, sub-G0 fraction); format: cell-based; settings: increase in sub-G0 fraction

crystalline form after storage ([1]; listed as 1,1,2-trichloroethane solvate of Compound 1): changes to a Form A
Structure (SMILES): C=CC(=O)N1CCC[C@@H](n2nc(-c3ccc(Oc4ccccc4)cc3)c3c(N)ncnc32)C1 [listing 1 of 3 here]

Crystallinity after storage ([1]; one week storage at 40° C./75% RH, XRPD): unaffected
Structure (SMILES): C=CC(=O)N1CCC[C@@H](n2nc(-c3ccc(Oc4ccccc4)cc3)c3c(N)ncnc32)C1 [listing 2 of 3 here]

crystalline form after storage ([1]; listed as benzyl acetate solvate of Compound 1): does not change
Structure (SMILES): C=CC(=O)N1CCC[C@@H](n2nc(-c3ccc(Oc4ccccc4)cc3)c3c(N)ncnc32)C1 [listing 3 of 3 here]

EC50 (OCI-Ly10; OCI-Ly10, 1 hour pulse, read-out: EC50 1 hour pulse (growth of OCI-Ly10)): 50 nM | EC50 (OCI-Ly10; OCI-Ly10, continuous exposure, read-out: EC50 continuous exposure (growth of OCI-Ly10)): 10 nM
Structure (SMILES): C=CC(=O)N1CCC[C@@H](n2nc(-c3ccc(Oc4ccccc4)cc3)c3c(N)ncnc32)C1 [Compound 1, 1-((R)-3-(4-amino-3-(4-phenoxyphenyl)-1H-pyrazolo[3,4-d]pyrimidin-1-yl)piperidin-1-yl)prop-2-en-1-one]
induction of apoptosis (OCILy10): observed
